Measurements published in PMC8556085, “Antimicrobial and Antioxidant Secondary Metabolites from Trifolium baccarinii Chiov. (Fabaceae) and Their Mechanisms of Antibacterial Action” (BioMed Research International, 2021).
Marks after values point to notes of the source that are not given here.

Columns and labels:
[1] = tested on: Candida albicans ATCC10231; assay: Broth microdilution MIC/MMC; type: cell-based
Procedure, shortened: (§1)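 Twofold broth microdilution in MHB (bacteria) or SDB (yeasts), final range 2048–0.125 μg/mL. Inocula were 1 × 10^6 CFU/mL for bacteria, incubated at 37 °C for 24 h with shaking, and 1 × 10^5 spores/mL for yeasts (C. albicans 30 °C 48 h; C. neoformans 30 °C 72 h). MIC was the lowest concentration with no visible growth, in triplicate.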

[2] = tested on: Cryptococcus neoformans H99; assay: Broth microdilution MIC/MMC; type: cell-based
Procedure, shortened: as §1

[3] = tested on: Escherichia coli S2(1); assay: Broth microdilution MIC/MMC; type: cell-based
Procedure, shortened: as §1

[4] = tested on: Pseudomonas aeruginosa ATCC27853; assay: Broth microdilution MIC/MMC; type: cell-based
Procedure, shortened: as §1

[5] = tested on: Staphylococcus aureus ATCC25923; assay: Broth microdilution MIC/MMC; type: cell-based
Procedure, shortened: as §1

[6] = tested on: methicillin-resistant Staphylococcus aureus 03 (MRSA03); assay: Broth microdilution MIC/MMC; type: cell-based
Procedure, shortened: as §1

[7] = tested on: methicillin-resistant Staphylococcus aureus 04 (MRSA04); assay: Broth microdilution MIC/MMC; type: cell-based
Procedure, shortened: as §1

[8] = Gallic acid equivalent antioxidant capacity (GEAC) assay; conditions: ABTS radical, 420 nm, 240 s; mean ± SD
Procedure, shortened: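 Purified Sclerotinia sclerotiorum laccase oxidises ABTS in acetate buffer pH 5.0 (100 mM); ABTS●+ read at 420 nm after 240 s. Samples at 10–800 μg/mL (extracts) or 12.5–200 μg/mL (isolated compounds) in assay. Values expressed as gallic acid equivalents from a 0–84 μM gallic acid calibration curve; triplicates, three repeats.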

[9] = tested on: Pseudomonas aeruginosa ATCC27853; assay: Bacteriolytic assay (time-kill kinetic method, OD600); type: cell-based; conditions: Pseudomonas aeruginosa suspension, 2xMIC, after 240 min, compared to the 0 time value
Procedure: (§2) (1) Bacteriolytic Assay. […] Full growth of bacterium in MHB was diluted 100 times and incubated at 37°C to produce an OD600 of 0.8 as a starting inoculum. Sample solutions were added to the starting bacterial suspension to give a final concentration of 2xMIC and incubated at 37°C under agitation at 150 rpm. After the incubation period corresponding to 0, 15, 30, 60, 120, and 240 min, 100 μL was pipetted from each tube and the optical density was recorded at 600 nm using the Biobase UV-Vis spectrophotometer. Corresponding dilutions of test samples were used as blanks. Oxacillin was used as a positive control, and the tubes without an extract/compound served as negative controls. All the measurements were done in triplicate and repeated three times.

[10] = tested on: Staphylococcus aureus ATCC25923; assay: as above; type: cell-based; conditions: Staphylococcus aureus ATCC25923 suspension, 2xMIC, after 240 min, compared to the 0 time value
Procedure: as §2

[11] = tested on: Staphylococcus aureus; assay: Loss of salt tolerance; type: cell-based; conditions: pretreatment 1/2xMIC, MIC, 2xMIC for 1 h; MHA-NaCl 50, 60, 70 g/L
Procedure: (2) Loss of Salt Tolerance in Staphylococcus aureus. The ability of Staphylococcus aureus ATCC25923 and MRSA03 cells treated with the methanol extract and compound 5 to grow on Mueller-Hinton agar (MHA) supplemented with NaCl was investigated. In preliminary experiments, untreated suspensions of Staphylococcus aureus were plated on MHA supplemented with NaCl from 40 to 100 g/L. Plates were incubated. After incubation, the resulting colonies were counted. Concentrations of NaCl, 50, 60, and 70 g/L, which modestly compromised the colony-forming abilities of untreated microorganisms, were selected. For further experimentation steps, suspensions of bacteria were prepared as previously described and treated with the MeOH extract or compound 5 at 1/2xMIC, MIC, and 2xMIC. After 1 h incubation, samples were removed, serially diluted, and inoculated onto MHA and MHA-NaCl (50, 60, and 70 g/L). Bacterial culture without a sample was used as a control for each MHA-NaCl plate. Upon incubation, the numbers of CFU per milliliter on each MHA-NaCl plate were compared to those on the MHA plate, and the result was expressed as a percentage.

[12] = Pseudomonas aeruginosa ATCC27853
[13] = Staphylococcus aureus ATCC25923

Q: For “4,7,2′-trihydroxy-4′-methoxyisoflavanol [compound 5]”, which MMC ([1]; Candida albicans ATCC10231) is on record?
A: The MMC was 16 µg/mL.

Q: What about the MMC/MIC ([1]; Candida albicans ATCC10231) of the same substance?
A: The MMC/MIC was 2.

Q: What about the MIC ([1]; Candida albicans ATCC10231, 48 h, 30°C) of the same substance?
A: Its MIC is 8 µg/mL.

Q: And the MMC ([2]; Cryptococcus neoformans H99)?
A: The MMC was 8 µg/mL.

Q: And the MMC/MIC ([2]; Cryptococcus neoformans H99)?
A: The MMC/MIC was 1.

Q: What about the MIC ([2]; Cryptococcus neoformans H99, 72 h, 30°C) of the same substance?
A: Its MIC is 8 µg/mL.

Q: What about the MMC [3] of the same substance?
A: The MMC was 16 µg/mL.

Q: And the MMC/MIC [3]?
A: Its MMC/MIC is 2.

Q: And the MIC ([3]; 24 h, 37°C)?
A: Its MIC is 8 µg/mL.

Q: And the MMC [4, 12]?
A: Its MMC is 8 µg/mL.

Q: And the MMC/MIC [4, 12]?
A: Its MMC/MIC is 1.

Q: What about the MIC ([4]; Pseudomonas aeruginosa ATCC27853, 24 h, 37°C) of the same substance?
A: The MIC was 8 µg/mL.

Q: And the MMC [5, 13]?
A: Its MMC is 8 µg/mL.

Q: What about the MMC/MIC [5, 13] of the same substance?
A: The MMC/MIC was 1.

Q: What about the MIC ([5]; Staphylococcus aureus ATCC25923, 24 h, 37°C) of the same substance?
A: The MIC was 8 µg/mL.

Q: What about the MMC ([6]; MRSA03) of the same substance?
A: Its MMC is 32 µg/mL.

Q: What about the MMC/MIC ([6]; MRSA03) of the same substance?
A: Its MMC/MIC is 2.

Q: What about the MIC ([6]; MRSA03, 24 h, 37°C) of the same substance?
A: The MIC was 16 µg/mL.

Q: And the MMC ([7]; MRSA04)?
A: Its MMC is 16 µg/mL.

Q: And the MMC/MIC ([7]; MRSA04)?
A: The MMC/MIC was 1.

Q: What about the MIC ([7]; MRSA04, 24 h, 37°C) of the same substance?
A: Its MIC is 16 µg/mL.

Q: What about the “Gallic acid equivalent antioxidant capacity (GEAC)” value [8] of the same substance?
A: The value was 61.05 ± 0.90^h μg/mL.

Q: What about the “decline in cell turbidity” value [9] of the same substance?
A: Its value is 99.85%.

Q: And the “decline in cell turbidity” value [10]?
A: Its value is 99.87%.

Q: What about the “number of colony-forming units on NaCl-supplemented media after pretreatment” value [11] of the same substance?
A: Its value is “significant decrease”.
